From patent publication US8785459B2, “Quinazoline compounds as kinase inhibitors” (Development Center for Biotechnology, priority 2011, dated 2014)

Tests used:
A375 = experiment: Anti-proliferative activity, CellTiter-96 assay, A375; format: cell-based; settings: Homo sapiens, A-375, A375 cells, 72 hours incubation
Procedure: (§1) Antiproliferative Activity
(§2) The anti-proliferative activities of the compounds with formula (I) and formula (II) with respect to four human cancer cell lines (A549, A375, MDA-MB-231, and COLO205) were measured using the CellTiter™-96 assay kit (Promega) following the manufacturer's instructions. In brief, the cells were maintained in DMEM containing 10% FCS and incubated at 37° C. in 5% CO2 atmosphere. Cells were plated at a density of 2000 cells/well of a 96-well plate for 24 h, then treated with different concentrations of the compounds, and incubated for another 72 hours. At the end of the incubation, CellTiter™-96 Aqueous One Solution Reagent (Promega) was added and incubated for another 4.0 hours. Cell viability was determined by measuring absorbance at 490 nm using EMax® microplate reader (Molecular Devices). Data were processed and analyzed using GraphPad Prism version 4.

MDA-MB-231 = experiment: Anti-proliferative activity, CellTiter-96 assay, MDA-MB-231; format: cell-based; settings: Homo sapiens, MDA-MB-231 cells, 72 hours incubation
Procedure: as §1, §2

B-Raf = B-Raf (Homo sapiens (Human), UniProt P15056); experiment: Raf kinase assay (B-Raf), [33P] incorporation into MEK1(K97R); format: biochemical; settings: for inhibition at 1 µM: 1.0 μM compound, read-out: B-Raf inhibition at 1.0 μM
Outline: (§3)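 [33P] transfer to kinase-dead MEK1(K97R) substrate (500 ng) measured after 30 min at 30 °C in Tris pH 7.5 buffer containing 8 μM ATP. Enzyme inputs were 2 ng for C-Raf and 5 ng for B-Raf and B-Raf V600E. Duplicate 3-fold serial dilutions gave the half-maximal inhibitory concentration.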

B-Raf (V600E) = B-Raf (V600E) (Homo sapiens (Human), UniProt P15056, V600E); experiment: Raf kinase assay (B-Raf (V600E)), [33P] incorporation into MEK1(K97R); format: biochemical
Outline: as §3

A549 = experiment: Anti-proliferative activity, CellTiter-96 assay, A549; format: cell-based; settings: Homo sapiens, A549 cells, 72 hours incubation
Procedure: as §1, §2

C-Raf = C-Raf (Homo sapiens (Human), UniProt P04049); experiment: Raf kinase assay (C-Raf), [33P] incorporation into MEK1(K97R); format: biochemical
Outline: as §3

COLO205 = experiment: Anti-proliferative activity, CellTiter-96 assay, COLO205; format: cell-based; settings: Homo sapiens, COLO 205, COLO205 cells, 72 hours incubation
Procedure: as §1, §2

Chain of C-Raf (P04049 whole entry): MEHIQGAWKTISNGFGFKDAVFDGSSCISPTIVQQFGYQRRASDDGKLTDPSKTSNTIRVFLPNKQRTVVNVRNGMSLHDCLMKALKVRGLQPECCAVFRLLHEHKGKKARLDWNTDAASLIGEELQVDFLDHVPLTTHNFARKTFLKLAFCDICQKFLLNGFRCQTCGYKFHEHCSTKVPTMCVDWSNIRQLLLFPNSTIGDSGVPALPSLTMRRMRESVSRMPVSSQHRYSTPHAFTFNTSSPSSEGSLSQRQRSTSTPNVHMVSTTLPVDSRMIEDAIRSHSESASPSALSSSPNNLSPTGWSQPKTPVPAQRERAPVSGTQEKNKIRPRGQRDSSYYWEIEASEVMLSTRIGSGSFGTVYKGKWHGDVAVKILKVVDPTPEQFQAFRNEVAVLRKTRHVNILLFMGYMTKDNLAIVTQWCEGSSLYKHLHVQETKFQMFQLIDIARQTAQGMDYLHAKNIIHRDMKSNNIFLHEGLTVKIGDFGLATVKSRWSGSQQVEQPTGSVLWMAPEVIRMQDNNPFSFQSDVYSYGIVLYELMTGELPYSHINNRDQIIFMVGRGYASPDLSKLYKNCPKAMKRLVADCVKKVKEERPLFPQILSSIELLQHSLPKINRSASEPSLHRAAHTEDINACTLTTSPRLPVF
Chain of B-Raf (V600E) (P15056 whole entry V600E): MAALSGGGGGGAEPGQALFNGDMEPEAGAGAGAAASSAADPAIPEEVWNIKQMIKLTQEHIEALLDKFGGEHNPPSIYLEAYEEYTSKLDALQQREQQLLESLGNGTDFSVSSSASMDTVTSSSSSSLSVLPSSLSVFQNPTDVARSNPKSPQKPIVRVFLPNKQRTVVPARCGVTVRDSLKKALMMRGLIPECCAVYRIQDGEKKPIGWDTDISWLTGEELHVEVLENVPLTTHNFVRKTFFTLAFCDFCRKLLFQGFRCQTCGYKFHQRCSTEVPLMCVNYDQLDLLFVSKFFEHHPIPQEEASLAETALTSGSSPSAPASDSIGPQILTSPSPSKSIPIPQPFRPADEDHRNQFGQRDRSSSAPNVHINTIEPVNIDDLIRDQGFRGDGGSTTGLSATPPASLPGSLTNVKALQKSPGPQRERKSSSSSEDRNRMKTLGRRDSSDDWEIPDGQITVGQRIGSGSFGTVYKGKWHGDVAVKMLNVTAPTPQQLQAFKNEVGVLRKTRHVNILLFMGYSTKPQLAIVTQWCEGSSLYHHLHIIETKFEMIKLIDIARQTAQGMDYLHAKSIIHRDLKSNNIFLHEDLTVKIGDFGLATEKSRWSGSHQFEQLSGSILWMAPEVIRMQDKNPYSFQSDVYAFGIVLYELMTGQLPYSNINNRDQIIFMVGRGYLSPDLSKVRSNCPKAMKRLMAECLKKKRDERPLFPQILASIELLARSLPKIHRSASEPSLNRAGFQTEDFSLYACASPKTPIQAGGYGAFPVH
Chain of B-Raf (P15056 whole entry): as the sequence (P15056 whole entry V600E) above, with E600V counted along it

Compound | IC50 (A375) | IC50 (MDA-MB-231) | IC50 (B-Raf) | IC50 (B-Raf (V600E)) | IC50 (A549) | IC50 (C-Raf) | IC50 (COLO205) | inhibition at 1 µM (B-Raf)
COc1cc(-c2ccc3ncnc(Nc4ccccc4)c3c2)ccc1O [Compound 1, 2-methoxy-4-(4-(phenylamino)quinazolin-6-yl)phenol] | 2.3 ± 0.1 µM | 1.8 ± 0.2 µM | 900 nM | 760 nM | 1.3 ± 0.3 µM | 2150 nM | 8.5 ± 2.3 µM | 
COc1cc(-c2ccc3ncnc(Nc4ccc(F)c(Cl)c4)c3c2)ccc1O [Compound 14, 4-(4-(3-chloro-4-fluorophenylamino)quinazolin-6-yl)-2-methoxyphenol] | > 50 µM | > 50 µM | 1010 nM | 1090 nM | > 50 µM | 2160 nM | 31.6 ± 2.5 µM | 52.7%
COc1cc(-c2ccc3ncnc(Nc4ccc(F)cc4)c3c2)ccc1O [Compound 15, 4-(4-(4-fluorophenylamino)quinazolin-6-yl)-2-methoxyphenol] | 2.7 ± 0.2 µM | 4.1 ± 0.3 µM | 1150 nM | 1020 nM | 2.5 ± 0.6 µM | 1450 nM | 11.8 ± 4.6 µM | 44.4%
COc1cc(-c2cc3c(Nc4cccc(O)c4)ncnc3cc2OC)ccc1O [Compound 31, 4-(4-(3-hydroxyphenylamino)-7-methoxyquinazolin-6-yl)-2-methoxyphenol] | > 50 µM | > 50 µM | 87 nM | 94 nM | > 50 µM | 781 nM | > 50 µM | 93.8%
COc1cc(-c2cc3c(Nc4cc(O)ccc4Cl)ncnc3cc2OC)ccc1O [Compound 43, 4-(4-(2-chloro-5-hydroxyphenylamino)-7-methoxyquinazolin-6-yl)-2-methoxyphenol] | 8.7 ± 2.7 µM | > 50 µM | 40.4 nM | 47.3 nM | 2.2 ± 0.4 µM | 245 nM | 24.7 ± 2.4 µM | 94.3%
COc1cc2ncnc(Nc3cccc(O)c3)c2cc1-c1ccc(O)cc1 [Compound 49, 3-(6-(4-hydroxyphenyl)-7-methoxyquinazolin-4-ylamino)phenol] | > 50 µM | > 50 µM | 55.3 nM | 71.6 nM | > 50 µM | 790 nM | > 50 µM | 90.3%
COc1cc(-c2ccc3ncnc(Nc4cccc5[nH]ncc45)c3c2)ccc1O [Compound 51, 4-(4-(1H-indazol-4-ylamino)quinazolin-6-yl)-2-methoxyphenol] | 1.4 ± 0.1 µM | 1.6 ± 0.4 µM | 121 nM | 157 nM | 1.6 ± 0.3 µM | 404 nM | 7.7 ± 0.3 µM | 86%
COc1cc(-c2ccc3ncnc(Nc4cc(O)ccc4Cl)c3c2)ccc1O [Compound 59, 4-(4-(2-chloro-5-hydroxyphenylamino)quinazolin-6-yl)-2-methoxyphenol] | 0.7 ± 0.1 µM | 0.9 ± 0.2 µM | 36.5 nM | 64.7 nM | 0.6 ± 0.3 µM | 290 nM | 4.5 ± 0.6 µM | 92.6%
COc1cc(-c2ccc3ncnc(Nc4cccc(O)c4Cl)c3c2)ccc1O [Compound 60, 2-chloro-3-(6-(4-hydroxy-3-methoxyphenyl)quinazolin-4-ylamino)phenol] | 1.3 ± 0.3 µM | 1.7 ± 0.5 µM | 39 nM | 56.5 nM | 1.3 ± 0.2 µM | 152 nM | 6.8 ± 0.16 µM | 91%
COc1cc(-c2ccc3ncnc(Nc4cc(O)c(Cl)cc4Cl)c3c2)ccc1O [Compound 61, 2,4-dichloro-5-(6-(4-hydroxy-3-methoxyphenyl)quinazolin-4-ylamino)phenol] | 1.9 ± 0.5 µM | 2.9 ± 0.4 µM | 40.1 nM | 59.9 nM | 1.6 ± 0.4 µM | 284 nM | 7.4 ± 1.9 µM | 92.6%
Oc1ccc(-c2ccc3ncnc(Nc4cccc(O)c4)c3c2)cc1 [Compound 62, 3-(6-(4-hydroxyphenyl)quinazolin-4-ylamino)phenol] | 2.6 ± 0.1 µM | 7.2 ± 1.4 µM | 32.5 nM | 60.1 nM | 3.7 ± 1.6 µM | 335 nM | 11.7 ± 2.5 µM | 93.8%
Oc1cccc(Nc2ncnc3ccc(-c4cccc(O)c4)cc23)c1 [Compound 63, 3-(6-(3-hydroxyphenyl)quinazolin-4-ylamino)phenol] | 2.3 ± 0.6 µM | 9.5 ± 1.3 µM | 27.7 nM | 51.7 nM | 5.3 ± 1 µM | 300 nM | 7.1 ± 1.3 µM | 93.4%
COc1ccc(-c2ccc3ncnc(Nc4cccc(O)c4)c3c2)cc1 [Compound 64, 3-(6-(4-methoxyphenyl)quinazolin-4-ylamino)phenol] | 6 ± 0.3 µM | 15.6 ± 0.8 µM | 62.4 nM | 105 nM | 11 ± 3.3 µM | 1230 nM | 17.3 ± 1.9 µM | 91.9%
COc1cc2ncnc(Nc3cccc(O)c3)c2cc1-c1ccc(N)cc1 [Compound 68, 3-(6-(4-aminophenyl)-7-methoxyquinazolin-4-ylamino)phenol] | 4.9 ± 1.7 µM | 11.5 ± 3.8 µM | 55.8 nM | 76.6 nM | 7 ± 2.4 µM | 860 nM | 15.7 ± 4.1 µM | 83.7%
COc1cccc(-c2ccc3ncnc(Nc4cccc5[nH]ncc45)c3c2)c1F [Compound 74, 6-(2-fluoro-3-methoxyphenyl)-N-(1H-indazol-4-yl)quinazolin-4-amine] | > 50 µM | > 50 µM | 114 nM | 139 nM | > 50 µM | 751 nM | > 50 µM | 91.2%
COc1ccc(-c2ccc3ncnc(Nc4cccc5[nH]ncc45)c3c2)cc1F [Compound 75, 6-(3-fluoro-4-methoxyphenyl)-N-(1H-indazol-4-yl)quinazolin-4-amine] | 11.1 ± 0.8 µM | 11.6 ± 1.7 µM | 157 nM | 221 nM | 9.6 ± 1.2 µM | 672 nM | 18.5 ± 1.1 µM | 85%
COc1cc(-c2ccc3ncnc(Nc4cccc5[nH]ncc45)c3c2)ccc1F [Compound 84, 6-(4-fluoro-3-methoxyphenyl)-N-(1H-indazol-4-yl)quinazolin-4-amine] | 11.5 ± 1.9 µM | 14.8 ± 0.5 µM | 172 nM | 195 nM | 8.9 ± 1.3 µM | 757 nM | 11.5 ± 1.3 µM | 83.1%
Fc1ccc(-c2ccc3ncnc(Nc4cccc5[nH]ncc45)c3c2)cc1F [Compound 85, 6-(3,4-difluorophenyl)-N-(1H-indazol-4-yl)quinazolin-4-amine] | 11.4 ± 3 µM | 23.2 ± 2 µM | 174 nM | 209 nM | 14.2 ± 0.8 µM | 495 nM | 15.9 ± 4.1 µM | 83%
c1cc(Nc2ncnc3ccc(-c4ccc5c(c4)OCO5)cc23)c2cn[nH]c2c1 [Compound 96, 6-(benzo[d][1,3]dioxol-5-yl)-N-(1H-indazol-4-yl)quinazolin-4-amine] | 7.7 ± 0.4 µM | 12.6 ± 1.8 µM | 141 nM | 161 nM | 14.2 ± 2.4 µM | 568 nM | 13 ± 2.4 µM | 86.1%
NC(=O)c1cccc(-c2ccc3ncnc(Nc4cccc5[nH]ncc45)c3c2)c1 [Compound 97, 3-(4-(1H-indazol-4-ylamino)quinazolin-6-yl)benzamide] | 24.5 ± 7.1 µM | 12.7 ± 2 µM | 112 nM | 151 nM | > 50 µM | 584 nM | 12.7 ± 2.1 µM | 86.6%
COc1ccc(-c2ccc3ncnc(Oc4cccc(O)c4)c3c2)cc1 [Compound 152, 3-(6-(4-methoxyphenyl)quinazolin-4-yloxy)phenol] | > 50 µM | > 50 µM | 131 nM | 198 nM | > 50 µM | 2330 nM |  | 86.4%
c1cc(Nc2ncnc3ccc(-c4ccc5[nH]ncc5c4)cc23)c2cn[nH]c2c1 [Compound 153, N-(1H-indazol-4-yl)-6-(1H-indazol-5-yl)quinazolin-4-amine] | 6.4 ± 0.9 µM | 7.8 ± 0.3 µM | 188 nM | 236 nM | 7.7 ± 0.6 µM | 723 nM |  | 84.4%
Oc1c(F)ccc(Nc2ncnc3ccc(-c4ccc(Cl)cc4)cc23)c1F [Compound 164, 3-(6-(4-chlorophenyl)quinazolin-4-ylamino)-2,6-difluorophenol] |  |  | 151 nM | 216 nM |  | 3510 nM |  | 83%
